“And” between values parts separate entries of the source, which are not always exact repeats. Equal values may be shown once. “Also recorded” adds a separate entry of the source. Read-outs that look alike come from different tables or passages of the source.
Key:
[1] = in vivo; cited from earlier work
mitochondrial ATP output = assay: Bicep curls to failure (reps-to-failure) as proxy for ATP output; format: in vivo, human; parameters: key to Latching: ↑: Up-latching is indicated by an up-arrow; ↓: down-latching by a down-arrow; —: others producing no significant effect are indicated by a dash; details: for Latching: Table 1, up-/down-latching of IMM judged by reps-to-failure; for change in reps-to-failure from baseline: 100 mg dose, baseline 11 reps

SMILES | Latching (mitochondrial ATP output) | latching behaviour as described in words (mitochondrial ATP output) | further results
CC(O)C(=O)O (centres unmarked) [Lactic acid] | ↑ |  | biological half-life [1]: around 20 minutes; reps-to-failure relative to new baseline 350 (mitochondrial ATP output; FIG. 3A points 360-362, after PQQ treatments): above baseline 350
c12c3c4c5c1c1c6c7c2c2c8c3c3c9c4c4c%10c5c5c1c1c6c6c%11c7c2c2c7c8c3c3c8c9c4c4c9c%10c5c5c1c1c6c6c%11c2c2c7c3c3c8c4c4c9c5c1c1c6c2c3c41 [C60, fullerene C60] |  |  | subsequent reps-to-failure performance (mitochondrial ATP output; FIG. 6 curve 624, 3 mg C60 in MCT oil taken at 49 reps after up-latchers and DHM): almost flat
O=C(O)CC(O)(CC(=O)O)C(=O)O [Citric acid] | ↓ | strongest down-latchers; also recorded: strong down-latcher | half-life in the body [1]: about 5 minutes; reps-to-failure after dose (mitochondrial ATP output; 50 mg taken alone, from 20): 11 reps; reps-to-failure after dose (mitochondrial ATP output; FIG. 11 point 1108, two grams neutralized, from baseline 22 reps, stays flat): 10 reps; bicep curls to failure after dose (mitochondrial ATP output; about 2 g neutralized by bicarbonate, from 24 rep baseline, at 15 and 30 minutes): 11 reps
Oc1ccc(C=Cc2cc(O)cc(O)c2)cc1 [Resveratrol] | ↓ |  | 
O=C(O)CC(=O)C(=O)O [Oxaloacetic acid] | ↑ |  | 
O=C(O)CCCCC(=O)O [Adipic acid] | ↑ |  | reps-to-failure after dose (mitochondrial ATP output; 1 gram with 1 gram AAKG and sodium bicarbonate, from 11 reps, in 20 minutes): 31 reps
CN(C)c1ccc2nc3ccc(=[N+](C)C)cc-3sc2c1 [methylene blue, reference compound] |  |  | change in reps-to-failure from baseline (mitochondrial ATP output; at 15 minutes): no change; change in reps-to-failure from baseline (mitochondrial ATP output; at one hour): no change
O=C(O)/C=C/C(=O)O [Fumaric acid] | ↑ | one of the best up-latchers | reps-to-failure curve compared with curve 124 of the fumaric acid/AAKG combination (mitochondrial ATP output; FIG. 1, dosed singly, neutralized, baseline 12 reps): much lower
OCC(O)CO [Glycerol] | ↓ | strong down-latcher | reps-to-failure after being reduced (mitochondrial ATP output; 3 g, separate trials): 11 reps and 14 reps; reps-to-failure after being knocked down (mitochondrial ATP output; 5 g): 14 reps; reps-to-failure after dose relative to baseline (mitochondrial ATP output; FIG. 3A point 373, 5 g, from up-latched level): down to baseline; reps-to-failure after dose (stabilized) (mitochondrial ATP output; FIG. 4, five grams, from 30 reps): about 13 reps
CC(=O)C(=O)O [Pyruvate] | — |  | 
CC1=C(/C=C/C(C)=C/C=C/C(C)=C/C=C/C=C(C)/C=C/C=C(C)/C=C/C2=C(C)C[C@@H](O)CC2(C)C)C(C)(C)C[C@H](O)C1 [zeaxanthin] |  | substantially non-latcher | maximum bicep curls to failure after dose (mitochondrial ATP output; FIG. 7 point 706, from baseline of 9 reps, in 15 minutes, then fell back): 14 reps
CN(CC(=O)O)C(=N)N [Creatine] | — | did not latch | 
O=C(O)c1cccnc1 [Niacin] |  | down-latchers | 
CC(C)=CCC/C(C)=C/C=C/C(C)=C/C=C/C(C)=C/C=C/C=C(C)/C=C/C=C(C)/C=C/C=C(\C)CCC=C(C)C [Lycopene] | ↑ |  | bicep curls to failure after dose (mitochondrial ATP output; FIG. 7, 100 mg, from baseline of 6 reps, 70 minutes): 32 reps
O=C(O)C(O)c1ccccc1 (centres unmarked) [Mandelic acid] | ↑ |  | reps-to-failure after dose (mitochondrial ATP output; 1 g of salt, from 14 reps (after 3 g glycerol)): 31 reps
O=C(O)CCCCCCCC(=O)O [Azelaic acid] | ↑ |  | reps-to-failure after dose (mitochondrial ATP output; one gram, used alone, from 13, in 30 minutes): 43 reps
O=C(O)c1cc(C(=O)O)c2c(n1)C(=O)C(=O)c1cc(C(=O)O)[nH]c1-2 [PQQ, Pyrroloquinoline quinone] |  |  | effect on fission and fusion reps-to-failure curves (mitochondrial ATP output; FIG. 3A point 340, PQQ increased 5-fold to 100 mg, with one gram AAKG, person after shingles): near instant merger of fission and fusion lines

SMILES | Latching (mitochondrial ATP output) | latching behaviour as described in words (mitochondrial ATP output) | further results
OC[C@@H](O)[C@@H](O)[C@H](O)[C@H](O)CO [Mannitol] | — |  | 
COC1=C(OC)C(=O)C(C/C=C(\C)CC/C=C(\C)CC/C=C(\C)CC/C=C(\C)CC/C=C(\C)CC/C=C(\C)CC/C=C(\C)CC/C=C(\C)CC/C=C(\C)CCC=C(C)C)=C(C)C1=O [CoQ-10] | — |  | 
O=C(O)CCC(=O)C(=O)O [AKG, Alpha-ketoglutarate] |  |  | latching behaviour as described in words (mitochondrial ATP output; in vivo): weak up-latcher
O=C(O)CC(O)C(=O)O (centres unmarked) [Malic acid] | ↑ |  | reps-to-failure after dose (mitochondrial ATP output; as magnesium malate, from 10 reps (after 3 g glycerol and 1 g ethyl lactate), in 2 hours): 21 reps; reps-to-failure results compared with neutralized fumaric acid in FIG. 1 (mitochondrial ATP output; separate trials, neutralized): nearly identical
NC(=O)c1cccnc1 [nicotinamide] |  | down-latchers | 
O=C(O)CCCCCC(=O)O [Pimelic acid] | ↑ |  | 
O=C(O)CCCCCCC(=O)O [Suberic acid] | ↑ |  | 
O=C1c2c(O)cc(O)cc2O[C@H](c2cc(O)c(O)c(O)c2)[C@H]1O [DHM, Dihydromyricetin] |  | down-latching | reps-to-failure after dosing on top of up-latching (mitochondrial ATP output; FIG. 9 curve 924, dosed at point 922 after lactate/AAKG/PQQ, baseline 20 reps, then recovery): substantially below baseline
OC[C@@H](O)[C@@H](O)CO [Erythritol] | ↓ | strong down-latchers | reps-to-failure after dose (mitochondrial ATP output; FIG. 6 point 630, dosed at up-latched level of about 49 reps): 11 reps
O=C1NS(=O)(=O)c2ccccc21 [Saccharin] | .— |  | 
CCCCOC(=O)C(C)O (centres unmarked) [butyl lactate] |  | strong down-latchers | 
CCOC(=O)C(C)O (centres unmarked) [ethyl lactate] |  | strong down-latchers | 
OC[C@@H](O)[C@@H](O)[C@H](O)[C@@H](O)CO [Sorbitol] | ↓ |  | 
O=C(O)C(O)C(O)C(=O)O (centres unmarked) [Tartaric acid] | ↑ |  | reps-to-failure after dose (mitochondrial ATP output; 2 g, from 11 reps (after 3 g glycerol)): 21 reps
O=c1oc2cc(O)ccc2c2ccc(O)cc12 [Urolithin A] | ↓ |  | 
O=C(O)CCC(=O)O [Succinic acid] | ↑ | indirect up-latcher | peak reps-to-failure relative to fumaric and/or malic acids (mitochondrial ATP output; combined with AAKG and a neutralizing base): about half; delay of reps-to-failure peak (mitochondrial ATP output; combined with AAKG and a neutralizing base, versus fumaric/malic acids): about 15 minutes
O=C(O)CO [Glycolic acid] | ↑ |  | reps-to-failure after dose (mitochondrial ATP output; .7 g, from 14 reps (after 5 g glycerol), in about 1 hour): 28 reps

From patent US20250221952A1, “METHODS AND COMPOSITIONS FOR LARGE MODIFICATIONS OF ATP OUTPUT BY INNER MITOCHONDRIAL MEMBRANE LATCHING” (priority 2025, published 2025)
